# In patent US20260027104A1, “NOVEL NAPHTHYL AND ISOQUINOLINE SULFONAMIDE DERIVATIVES” (Hoffmann-La Roche Inc., priority 2022, published 2026):
# Molecular target: human GPR17 short isoform (Homo sapiens, UniProt Q13304)
# Experiment: hGPR17 cAMP assay (GPR17 cAMP Assay Protocol, antagonist mode)
# Type: cell-based
# Details: CHO-K1 cells stably expressing untagged human GPR17 short isoform; EC80 of agonist MDL29,951; forskolin 15 μM; 30 min, room temperature; TR-FRET cAMP readout
# Experimental: GPR17 cAMP Assay Protocol:
# CHO-K1 cells stably expressing vector containing untagged human GPR17 short isoform (Roche) were cultured at 37° C./5% CO2 in DMEM (Dulbecco's Modified Eagle Medium):F-12 (1:1) supplemented with 10% foetal bovine serum and 400 μg/ml Geneticin.
# Changes in intracellular cyclic adenosine monophosphate (cAMP) levels were quantified using the Nano-TRF Detection Assay kit (Roche Diagnostics, Cat. No. 05214386001). This assay allows for direct cAMP quantification in a homogeneous solution. cAMP is detected based on time-resolved fluorescence energy transfer (TR-FRET) and competitive binding of ruthenylated cAMP and endogenous cAMP to an anti-cAMP monoclonal antibody labeled with AlexaFluor-700. The Ruthenium complex serves as the FRET donor and transfers energy to AlexaFluor-700. The FRET signal is inversely proportional to the cAMP concentration.
# CHO-GPR17S cells were detached with Accutase and resuspended in assay buffer consisting of Hank's Balanced Salt Solution (HBSS), 10 mM HEPES (4-(2-hydroxyethyl) piperazine-1-ethanesulfonic acid solution) and 0.1% bovine serum albumin (pH 7.4). The cells were seeded in black 384-well plates (Corning) at a density of 10′000 cells/20 μl assay buffer until the addition of compounds.
# Test antagonist compounds were serially diluted in dimethyl sulfoxide (DMSO) and spotted in 384-well plates. The compounds were then diluted in BSS buffer supplemented with an EC80 concentration of MDL29,951 (3-(2-Carboxy-4,6-dichloroindol-3-yl)propionic acid) (GPR17 agonist) plus 3-Isobutyl-1-methylxanthine (IBMX) (0.5 mM final concentration) and added to the cells at room temperature. Forskolin (15 μM final concentration) was added 5 minutes after the test compounds and the cells were incubated at room temperature for 30 minutes. The assay was stopped by adding cAMP detection mix (containing detergents for cell lysis) for 90 minutes at room temperature.
# Cellular cAMP was measured using a Paradigm reader (Molecular Devices). The raw data was used to calculate the FRET signal based on the assay's P-factor as per cAMP kit instructions. The data was normalized to the maximal activity of a reference antagonist and dose response curves were fitted to the percent activity of the test compounds using a sigmoidal dose response model (Genedata Screener).
# Results in the hGPR17 cAMP assay are provided for compounds of formula I in Table 1
# Chain of human GPR17 short isoform (Q13304 29-367): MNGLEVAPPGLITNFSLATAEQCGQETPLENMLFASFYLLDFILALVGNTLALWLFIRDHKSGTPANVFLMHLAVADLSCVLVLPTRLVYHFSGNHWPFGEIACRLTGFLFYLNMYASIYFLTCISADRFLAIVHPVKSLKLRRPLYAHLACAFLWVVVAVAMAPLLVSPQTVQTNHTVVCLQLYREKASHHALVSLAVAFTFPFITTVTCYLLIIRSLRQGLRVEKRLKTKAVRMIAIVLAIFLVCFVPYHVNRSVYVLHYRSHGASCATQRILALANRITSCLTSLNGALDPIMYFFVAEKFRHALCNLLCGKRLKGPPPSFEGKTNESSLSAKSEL
row,IC50,Compound
1,431 nM,"COc1nc(C2COC2)c(F)cc1NS(=O)(=O)c1cccc2nc(Cl)ccc12 [Example 7, 2-chloro-N-[5-fluoro-2-methoxy-6-(oxetan-3-yl)-3-pyridyl]quinoline-5-sulfonamide]"
2,327 nM,"N#CCc1cc(F)c(NS(=O)(=O)c2cnc(O)c3c(Cl)cccc23)cc1F [Example 20, 8-chloro-N-[4-(cyanomethyl)-2,5-difluoro-phenyl]-1-hydroxy-isoquinoline-4-sulfonamide]"
3,182 nM,"N#CCc1cc(F)c(NS(=O)(=O)c2c[nH]c(=O)c3c(Cl)c(Cl)ccc23)cc1F [Example 38, 7,8-dichloro-N-[4-(cyanomethyl)-2,5-difluoro-phenyl]-1-keto-2H-isoquinoline-4-sulfonamide]"
4,38 nM,"COc1nc(OCC(F)F)c(F)cc1NS(=O)(=O)c1cncc2nc(Cl)ccc12 [Example 50, 2-chloro-N-[6-(2,2-difluoroethoxy)-5-fluoro-2-methoxy-3-pyridyl]-1,7-naphthyridine-5-sulfonamide]"
5,5 nM,COc1nc(OCC(F)F)c(F)cc1NS(=O)(=O)c1c[nH]c(=O)c2cc(Cl)ccc12 [Example 26]
6,92 nM,"COc1nc(OC(F)F)c(F)cc1NS(=O)(=O)c1cncc2cc(Cl)ccc12 [Example 13, 7-chloro-N-[6-(difluoromethoxy)-5-fluoro-2-methoxy-3-pyridyl]isoquinoline-4-sulfonamide]"
7,217 nM,"N#CCc1cc(F)c(NS(=O)(=O)c2cccc3nc(Cl)ccc23)cc1F [Example 3, 2-chloro-N-[4-(cyanomethyl)-2,5-difluoro-phenyl]quinoline-5-sulfonamide]"
8,495 nM,"COc1nc(NS(=O)(=O)c2cccc3nc(Cl)ccc23)c(F)cc1OCC(F)F [Example 9, 2-chloro-N-[5-(2,2-difluoroethoxy)-3-fluoro-6-methoxy-2-pyridyl]quinoline-5-sulfonamide]"
9,594 nM,"N#CCc1cc(F)c(NS(=O)(=O)c2c[nH]c(=O)c3ccccc23)cc1F [Example 52, N-(4-(cyanomethyl)-2,5-difluorophenyl)-1-oxo-1,2-dihydroisoquinoline-4-sulfonamide]"
10,331 nM,"COc1nc(NS(=O)(=O)c2c[nH]c(=O)c3cc(Cl)ccc23)ncc1OCCF [Example 22, 7-chloro-N-[5-(2-fluoroethoxy)-4-methoxy-pyrimidin-2-yl]-1-keto-2H-isoquinoline-4-sulfonamide]"
11,260 nM,"N#CCc1cc(F)c(NS(=O)(=O)c2cncc3cc(Cl)ccc23)cc1F [Example 12, 7-chloro-N-[4-(cyanomethyl)-2,5-difluoro-phenyl]isoquinoline-4-sulfonamide]"
12,28 nM,"COc1nc(OCC(F)F)c(F)cc1NS(=O)(=O)c1cccc2nc(Cl)ccc12 [Example 10, 2-chloro-N-[6-(2,2-difluoroethoxy)-5-fluoro-2-methoxy-3-pyridyl]quinoline-5-sulfonamide]"
13,35 nM,"CNc1ncc(S(=O)(=O)Nc2cc(F)c(OCC(F)F)nc2OC)c2ccc(Cl)cc12 [Example 43, 7-chloro-N-[6-(2,2-difluoroethoxy)-5-fluoro-2-methoxy-3-pyridyl]-1-(methylamino)isoquinoline-4-sulfonamide]"
14,111 nM,"O=S(=O)(Nc1cc(F)c(OC(F)F)nc1OC(F)F)c1cccc2nc(Cl)ccc12 [Example 11, N-[2,6-bis(difluoromethoxy)-5-fluoro-3-pyridyl]-2-chloro-quinoline-5-sulfonamide]"
15,154 nM,"COc1nc(OC(F)F)c(F)cc1NS(=O)(=O)c1ccnc2cc(Cl)ccc12 [Example 48, 7-chloro-N-[6-(difluoromethoxy)-5-fluoro-2-methoxy-3-pyridyl]quinoline-4-sulfonamide]"
16,31 nM,"COc1nc(OCC(F)F)c(F)cc1NS(=O)(=O)c1cccc2c1CCC(C)O2 (stereo not drawn) [Example 16, N-[6-(2,2-difluoroethoxy)-5-fluoro-2-methoxy-3-pyridyl]-2-methyl-chromane-5-sulfonamide]"
17,19 nM,"COc1nc(CC#N)c(F)cc1NS(=O)(=O)c1cccc2nc(Cl)ccc12 [Example 5, 2-chloro-N-[6-(cyanomethyl)-5-fluoro-2-methoxy-3-pyridyl]quinoline-5-sulfonamide]"
18,278 nM,"COc1nc(NS(=O)(=O)c2c[nH]c(=O)c3cc(Cl)ccc23)nc(OC)c1CC(F)F [Example 24, 7-chloro-N-[5-(2,2-difluoroethyl)-4,6-dimethoxy-pyrimidin-2-yl]-1-keto-2H-isoquinoline-4-sulfonamide]"
19,282 nM,"N#CCc1cc(F)c(NS(=O)(=O)c2cccc3ccccc23)cc1F [Example 1, N-(4-(cyanomethyl)-2,5-difluorophenyl)naphthalene-1-sulfonamide]"
20,371 nM,"COc1nc(OCC(F)F)c(F)cc1NS(=O)(=O)c1cn(C)c(=O)c2cc(Cl)ccc12 [Example 36, 7-chloro-N-[6-(2,2-difluoroethoxy)-5-fluoro-2-methoxy-3-pyridyl]-1-keto-2-methyl-isoquinoline-4-sulfonamide]"
21,65 nM,"COc1nc(OCC(F)F)c(F)cc1NS(=O)(=O)c1cccc2nc(N(C)C)ccc12 [Example 31, N-[6-(2,2-difluoroethoxy)-5-fluoro-2-methoxy-3-pyridyl]-2-(dimethylamino)quinoline-5-sulfonamide]"
